Laboratory results as given in patent US20240327413A1, “NLRP3 MODULATORS” (Zomagen Biosciences Ltd, priority 2021, published 2024).
Read-outs that look alike come from different tables or passages of the source.

System: IL-1b
Assay: Human Monocyte IL-1b Assay (fresh human whole blood, LPS priming, ATP stimulation, ELISA)
Type: cell-based
Conditions: read-out: IL-1b (IC50)
Procedure: Serially diluted testing compounds were incubated with […] of fresh human whole blood for 0.5 hours. Cells were primed with 100 ng/mL lipopolysaccharide (LPS) for 3.5 hours at 37° C. followed by stimulation with 5 mM ATP for an additional 45 minutes. The concentration of IL-1b concentration in the supernatant was determined with commercially available ELISA kits. Negative controls are wells without stimulation, while positive controls are wells with stimulation but only DMSO without compounds added. After background subtraction, compound treatment wells were then normalized to the positive controls for IC50 calculations.

[1] = fresh human whole blood, 100 ng/mL LPS 3.5 hours, then 5 mM ATP 45 minutes, IL-1b in supernatant by ELISA

SMILES | IC50 [1] | IC50 (Homo sapiens)
Cc1cc(C)c(-c2nnc(N[C@@H]3CCCN(C)C3)c3ccccc23)c(O)c1 [Compound 1, 3,5-dimethyl-2-(4-(((R)-1-methylpiperidin-3-yl)amino)phthalazin-1-yl)phenol] | < 300 nM | 
Cc1cc(O)c(-c2nnc(N[C@@H]3CCCN(C)C3)c3ccccc23)cc1F [Compound 5, (R)-4-fluoro-5-methyl-2-(4-((1-methylpiperidin-3-yl)amino)phthalazin-1-yl)phenol] | < 300 nM | 
CCOC(=O)c1cc(C)ccc1-c1nnc(N[C@@H]2CCCN(C)C2)c2ccccc12 [Compound 6, ethyl (R)-5-methyl-2-(4-((1-methylpiperidin-3-yl)amino)phthalazin-1-yl)benzoate] | 3000 to 10000 nM | 
Cc1ccc(-c2nnc(N(C)[C@@H]3CCCN(C)C3)c3ccccc23)c(O)c1 [Compound 12, (R)-5-methyl-2-(4-(methyl(1-methylpiperidin-3-yl)amino)phthalazin-1-yl)phenol] | 300 to 3000 nM | 
Cc1cc(C)c(-c2nnc(N[C@@H]3CCCN(C)C3)n3cccc23)c(O)c1 [Compound 13, (R)-3,5-dimethyl-2-(4-((1-methylpiperidin-3-yl)amino)pyrrolo[1,2-d][1,2,4]triazin-1-yl)phenol] | < 300 nM | 
Cc1cc(O)c(-c2nnc(N[C@@H]3CCCN(C)C3)n3cccc23)c(F)c1 [Compound 14, (R)-3-fluoro-5-methyl-2-(4-((1-methylpiperidin-3-yl)amino)pyrrolo[1,2-d][1,2,4]triazin-1-yl)phenol] | < 300 nM | 
CN1CCC[C@@H](Nc2nnc(-c3ccc(C(F)(F)F)cc3O)c3ccsc23)C1 [Compound 19, (R)-2-(7-((1-methylpiperidin-3-yl)amino)thieno[2,3-d]pyridazin-4-yl)-5-(trifluoromethyl)phenol] | < 300 nM | 
CN1CCC[C@@H](Nc2nnc(-c3ccc(C(F)(F)F)cc3O)c3sccc23)C1 [Compound 20, (R)-2-(4-((1-methylpiperidin-3-yl)amino)thieno[2,3-d]pyridazin-7-yl)-5-(trifluoromethyl)phenol] | < 300 nM | 
CN1CCC[C@@H](Nc2nnc(-c3ccc(C(F)(F)F)cc3O)c3cscc23)C1 [Compound 22, (R)-2-(4-((1-methylpiperidin-3-yl)amino)thieno[3,4-d]pyridazin-1-yl)-5-(trifluoromethyl)phenol] | < 300 nM | 
Cc1ccc(-c2nnc(OC3CCCN(C)C3)c3ccccc23)c(O)c1 (centres unmarked) [Compound 23, 5-methyl-2-(4-((1-methylpiperidin-3-yl)oxy)phthalazin-1-yl)phenol] |  | 300 to 3000 nM
Cc1cc(O)c(-c2nnc(N[C@@H]3CCCN(C)C3)n3cccc23)cc1F [Compound 26, (R)-4-fluoro-5-methyl-2-(4-((1-methylpiperidin-3-yl)amino)pyrrolo[1,2-d][1,2,4]triazin-1-yl)phenol] | 300 to 3000 nM | 
CN1CCC[C@@H](Nc2nnc(-c3ccc4c(c3O)CCC4)c3cccn23)C1 [Compound 27, (R)-5-(4-((1-methylpiperidin-3-yl)amino)pyrrolo[1,2-d][1,2,4]triazin-1-yl)-2,3-dihydro-1H-inden-4-ol] | 300 to 3000 nM | 

Further lines, with some results ahead:

IC50 [1] | SMILES | IC50 (Homo sapiens)
< 300 nM | Cc1ccc(-c2nnc(N[C@@H]3CCCN(C)C3)c3ccccc23)c(O)c1 [Compound 2, (R)-5-methyl-2-(4-((1-methylpiperidin-3-yl)amino)phthalazin-1-yl)phenol] | 
< 300 nM | CN1CCC[C@@H](Nc2nnc(-c3ccc4c(c3O)CCC4)c3ccccc23)C1 [Compound 4, (R)-5-(4-((1-methylpiperidin-3-yl)amino)phthalazin-1-yl)-2,3-dihydro-1H-inden-4-ol] | 
< 300 nM | Cc1cc(C)c(-c2nnc(N[C@@H]3CCCN(C)C3)c3c2CCC3)c(O)c1 [Compound 7, 3,5-dimethyl-2-(4-(((R)-1-methylpiperidin-3-yl)amino)-6,7-dihydro-5H-cyclopenta[d]pyridazin-1-yl)phenol] | 
< 300 nM | Cc1ccc(-c2nnc(N[C@@H]3CCCN(C)C3)c3c2CCC3)c(O)c1 [Compound 8, (R)-5-methyl-2-(4-((1-methylpiperidin-3-yl)amino)-6,7-dihydro-5H-cyclopenta[d]pyridazin-1-yl)phenol] | 
< 300 nM | Cc1ccc(-c2nnc(N[C@@H]3CCCN(C)C3)c3c2CCC3)c(O)c1F [Compound 10, (R)-2-fluoro-3-methyl-6-(4-((1-methylpiperidin-3-yl)amino)-6,7-dihydro-5H-cyclopenta[d]pyridazin-1-yl)phenol] | 
< 300 nM | Cc1ccc(-c2nnc(N[C@@H]3CCCN(C)C3)c3c2CCCC3)c(O)c1 [Compound 11, (R)-5-methyl-2-(4-((1-methylpiperidin-3-yl)amino)-5,6,7,8-tetrahydrophthalazin-1-yl)phenol] | 
< 300 nM | Cc1ccc(-c2nnc(N[C@@H]3CCCN(C)C3)c3cscc23)c(O)c1 [Compound 21, (R)-5-methyl-2-(4-((1-methylpiperidin-3-yl)amino)thieno[3,4-d]pyridazin-1-yl)phenol] | 
< 300 nM | Cc1ccc(-c2nnc(N[C@@H]3CCCN(C)C3)n3cccc23)c(O)c1 [Compound 24, (R)-5-methyl-2-(4-((1-methylpiperidin-3-yl)amino)pyrrolo[1,2-d][1,2,4]triazin-1-yl)phenol] | 
